Literature values as cited in PMC3979036, “Autocrine IGF-I/insulin receptor axis compensates for inhibition of AKT in ER-positive breast cancer cells with resistance to estrogen deprivation” (Breast Cancer Research : BCR, 2013).

Target: InsR (insulin receptor) (Homo sapiens, UniProt P06213)
Test: autophosphorylation of human InsR in transfected CHO-T cells (AstraZeneca unpublished data)
Format: cell-based

Sequence of InsR (insulin receptor) (P06213 28-758): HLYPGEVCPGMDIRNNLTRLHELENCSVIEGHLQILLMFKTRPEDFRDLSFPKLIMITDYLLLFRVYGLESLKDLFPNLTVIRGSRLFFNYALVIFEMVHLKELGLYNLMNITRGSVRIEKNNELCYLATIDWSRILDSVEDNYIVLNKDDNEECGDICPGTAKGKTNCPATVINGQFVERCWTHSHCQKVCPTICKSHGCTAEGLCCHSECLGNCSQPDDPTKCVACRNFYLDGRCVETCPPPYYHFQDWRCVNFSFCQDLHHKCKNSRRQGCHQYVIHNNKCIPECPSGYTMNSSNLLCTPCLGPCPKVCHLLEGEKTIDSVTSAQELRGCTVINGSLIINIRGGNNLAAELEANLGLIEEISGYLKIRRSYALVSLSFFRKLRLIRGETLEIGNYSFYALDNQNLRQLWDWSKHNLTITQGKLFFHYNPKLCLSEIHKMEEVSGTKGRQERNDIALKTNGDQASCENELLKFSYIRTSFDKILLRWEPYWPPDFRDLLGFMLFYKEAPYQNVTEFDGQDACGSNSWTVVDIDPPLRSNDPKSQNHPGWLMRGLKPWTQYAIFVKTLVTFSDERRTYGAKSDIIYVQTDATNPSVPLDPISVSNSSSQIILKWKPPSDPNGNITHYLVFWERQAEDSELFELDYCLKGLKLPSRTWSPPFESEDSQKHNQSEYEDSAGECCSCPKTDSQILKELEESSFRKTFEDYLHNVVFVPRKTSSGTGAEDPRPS
Sequence of InsR (insulin receptor) (P06213 763-1382): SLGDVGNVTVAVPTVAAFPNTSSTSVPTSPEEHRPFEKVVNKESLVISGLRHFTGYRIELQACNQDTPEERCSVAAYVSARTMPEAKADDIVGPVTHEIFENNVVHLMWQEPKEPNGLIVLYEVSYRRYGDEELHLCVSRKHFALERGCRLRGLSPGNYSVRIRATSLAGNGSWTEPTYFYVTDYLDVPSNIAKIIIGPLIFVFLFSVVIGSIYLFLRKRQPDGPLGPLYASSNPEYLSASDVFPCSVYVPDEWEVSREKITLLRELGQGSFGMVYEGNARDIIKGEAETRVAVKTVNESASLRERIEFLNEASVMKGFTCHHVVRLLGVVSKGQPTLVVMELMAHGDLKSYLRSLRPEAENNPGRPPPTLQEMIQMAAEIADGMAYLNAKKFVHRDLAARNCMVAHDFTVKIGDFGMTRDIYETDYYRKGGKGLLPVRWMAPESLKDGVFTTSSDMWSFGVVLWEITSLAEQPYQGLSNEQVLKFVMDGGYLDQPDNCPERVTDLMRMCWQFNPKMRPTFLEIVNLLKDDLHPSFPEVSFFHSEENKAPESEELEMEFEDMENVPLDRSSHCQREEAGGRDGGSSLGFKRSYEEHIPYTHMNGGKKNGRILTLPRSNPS

- IC50: 186 nM
Compound: Cc1nn(C2CCN(C(=O)[C@@H](C)O)CC2)c(C)c1Nc1ncc(Cl)c(-c2cnn3ccccc23)n1 [AZD9362]
